Reference: ChEMBL document CHEMBL4673372, “1,2,3-triazole-thiazole hybrids: Synthesis, in vitro antimicrobial activity and antibiofilm studies” (Bioorg Med Chem Lett, 2021)
In brackets after ≈: the same amount, converted by molar mass.

How the values were obtained:
[1] = tested on: Staphylococcus aureus; experiment: Bactericidal activity against Staphylococcus aureus MTCC 96; type: functional
[2] = tested on: Pichia kudriavzevii; experiment: Antifungal activity against Candida krusei MTCC 3020; type: functional
[3] = tested on: [Candida] aaseri; experiment: Fungicidal activity against Candida aaseri MTCC 1962; type: functional; conditions: Yamadazyma aaseri
[4] = tested on: Candida albicans; experiment: Antifungal activity against Candida albicans MTCC 227; type: functional
[5] = tested on: Candida albicans; experiment: Antifungal activity against Candida albicans MTCC 854; type: functional
[6] = tested on: THP-1; experiment: Cytotoxicity against human THP-1 cells assessed as reduction in cell viability at 200 uM by MTT assay; type: cell-based; conditions: thp-1, 200 µM
[7] = tested on: Staphylococcus aureus; experiment: Antibacterial activity against Staphylococcus aureus MTCC 96 assessed as inhibition of bacterial growth by microtiter broth dilution method; type: functional
[8] = tested on: [Candida] aaseri; experiment: Antifungal activity against Candida aaseri MTCC 1962; type: functional; conditions: Yamadazyma aaseri
[9] = tested on: Staphylococcus aureus; experiment: Antibacterial activity against Staphylococcus aureus MLS16 MTCC 2940 assessed as inhibition of bacterial growth by microtiter broth dilution method; type: functional
[10] = tested on: Candida albicans; experiment: Antifungal activity against Candida albicans MTCC 1637; type: functional
[11] = tested on: Raoultella planticola; experiment: Inhibition of biofilm formation in Klebsiella planticola MTCC 530 incubated for 24 hrs by crystal violet staining based microtiter plate method; type: functional, organism-based; conditions: Klebsiella planticola, MTCC 530, 24 h; read-out: IC50
[12] = tested on: Escherichia coli; experiment: Antibacterial activity against Escherichia coli MTCC 739 assessed as inhibition of bacterial growth by microtiter broth dilution method; type: functional
[13] = tested on: Candida albicans; experiment: Fungicidal activity against Candida albicans MTCC 183; type: functional
[14] = tested on: Nakaseomyces glabratus; experiment: Antifungal activity against Candida glabrata MTCC 3019; type: functional
[15] = tested on: Staphylococcus aureus; experiment: Inhibition of biofilm formation in Staphylococcus aureus MLS16 MTCC 2940 incubated for 24 hrs by crystal violet staining based microtiter plate method; type: functional, organism-based
[16] = tested on: Bacillus subtilis; experiment: Bactericidal activity against Bacillus subtilis MTCC 121; type: functional
[17] = tested on: Candida albicans; experiment: Antifungal activity against Candida albicans MTCC 4748; type: functional
[18] = tested on: Candida parapsilosis; experiment: Antifungal activity against Candida parapsilosis MTCC 1745; type: functional; conditions: Lodderomyces parapsilosis
[19] = Selectivity index, ratio of CC50 for human THP-1 cells to MIC for Staphylococcus aureus MTCC 96; type: toxicity
[20] = tested on: Raoultella planticola; experiment: Bactericidal activity against Klebsiella planticola MTCC 530; type: functional
[21] = tested on: Bacillus subtilis; experiment: Antibacterial activity against Bacillus subtilis MTCC 121 assessed as inhibition of bacterial growth by microtiter broth dilution method; type: functional
[22] = tested on: Pseudomonas aeruginosa; experiment: Antibacterial activity against Pseudomonas aeruginosa MTCC 2453 assessed as inhibition of bacterial growth by microtiter broth dilution method; type: functional
[23] = tested on: Micrococcus luteus; experiment: Antibacterial activity against Micrococcus luteus MTCC 2470 assessed as inhibition of bacterial growth by microtiter broth dilution method; type: functional
[24] = tested on: Pseudomonas aeruginosa; experiment: Inhibition of biofilm formation in Pseudomonas aeruginosa MTCC 2453 incubated for 24 hrs by crystal violet staining based microtiter plate method; type: functional, organism-based; conditions: Pseudomonas aeruginosa, MTCC 2453, 24 h; read-out: IC50
[25] = tested on: Bacillus subtilis; experiment: Inhibition of biofilm formation in Bacillus subtilis MTCC 121 incubated for 24 hrs by crystal violet staining based microtiter plate method; type: functional, organism-based; conditions: Bacillus subtilis, MTCC 121, 24 h; read-out: IC50
[26] = Cytotoxicity against human THP-1 cells; type: cell-based
[27] = tested on: Candida albicans; experiment: Inhibition of biofilm formation in Candida albicans MTCC 3017 incubated for 24 hrs by crystal violet staining based microtiter plate method; type: functional, organism-based; conditions: Candida albicans, MTCC 3017, 24 h; read-out: IC50
[28] = tested on: Escherichia coli; experiment: Bactericidal activity against Escherichia coli MTCC 739; type: functional
[29] = tested on: Candida albicans; experiment: Antifungal activity against Candida albicans MTCC 183; type: functional
[30] = tested on: Nakaseomyces glabratus; experiment: Fungicidal activity against Candida glabrata MTCC 3019; type: functional
[31] = tested on: Micrococcus luteus; experiment: Bactericidal activity against Micrococcus luteus MTCC 2470; type: functional
[32] = tested on: Pichia sporocuriosa; experiment: Antifungal activity against Issatchenkia hanoiensis MTCC 4755; type: functional
[33] = tested on: Micrococcus luteus; experiment: Inhibition of biofilm formation in Micrococcus luteus MTCC 2470 incubated for 24 hrs by crystal violet staining based microtiter plate method; type: functional, organism-based
[34] = tested on: Candida albicans; experiment: Antifungal activity against Candida albicans MTCC 3018; type: functional
[35] = tested on: Staphylococcus aureus; experiment: Bactericidal activity against Staphylococcus aureus MLS16 MTCC 2940; type: functional
[36] = tested on: Pseudomonas aeruginosa; experiment: Bactericidal activity against Pseudomonas aeruginosa MTCC 2453; type: functional
[37] = tested on: Candida albicans; experiment: Fungicidal activity against Candida albicans MTCC 3018; type: functional
[38] = tested on: Candida albicans; experiment: Antifungal activity against Candida albicans MTCC 3958; type: functional
[39] = tested on: THP-1; experiment: Cytotoxicity against human THP-1 cells assessed as cell damage at 200 uM by LDH assay; type: cell-based; conditions: thp-1, 200 µM
[40] = tested on: Staphylococcus aureus; experiment: Inhibition of biofilm formation in Staphylococcus aureus […] incubated for 24 hrs by crystal violet staining based microtiter plate method; type: functional, organism-based
[41] = tested on: Raoultella planticola; experiment: Antibacterial activity against Klebsiella planticola MTCC 530 assessed as inhibition of bacterial growth by microtiter broth dilution method; type: functional
[42] = tested on: Candida albicans; experiment: Fungicidal activity against Candida albicans MTCC 1637; type: functional
[43] = tested on: Escherichia coli; experiment: Inhibition of biofilm formation in Escherichia coli MTCC 739 incubated for 24 hrs by crystal violet staining based microtiter plate method; type: functional, organism-based; conditions: Escherichia coli, MTCC 739, 24 h; read-out: IC50
[44] = tested on: Candida albicans; experiment: Fungicidal activity against Candida albicans MTCC 854; type: functional
[45] = tested on: Pichia sporocuriosa; experiment: Fungicidal activity against Issatchenkia hanoiensis MTCC 4755; type: functional
[46] = Micrococcus luteus, MTCC 2470, 24 h, read-out: IC50
[47] = Staphylococcus aureus, MTCC 92, 24 h, read-out: IC50

Compound: COc1ccc(-n2cc(COc3ccc(/C=N/Nc4nc(-c5cc6cc(Br)cc(OC)c6oc5=O)cs4)cc3)nn2)cc1
- MBC [1]: 11.8 µM (≈ 7.78 µg/mL)
- MIC [2]: > 190 µM
- MFC [3]: 11.8 µM (≈ 7.78 µg/mL)
- MIC [4]: > 190 µM
- MIC [5]: > 190 µM
- Activity [6]: Toxic
- MIC [7]: 5.9 µM (≈ 3.89 µg/mL)
- MIC [8]: 5.9 µM (≈ 3.89 µg/mL)
- MIC [9]: 5.9 µM (≈ 3.89 µg/mL)
- MIC [10]: 5.9 µM (≈ 3.89 µg/mL)
- IC50 [11]: 22.2 µM
- MIC [12]: 5.9 µM (≈ 3.89 µg/mL)
- MFC [13]: 23.7 µM (≈ 15.6 µg/mL)
- MIC [14]: 5.9 µM (≈ 3.89 µg/mL)
- IC50 [15]: Not Active
- MBC [16]: 11.8 µM (≈ 7.78 µg/mL)
- MIC [17]: > 190 µM
- MIC [18]: > 190 µM
- selectivity ratio [19]: 5.14
- MBC [20]: 5.9 µM (≈ 3.89 µg/mL)
- MIC [21]: 5.9 µM (≈ 3.89 µg/mL)
- MIC [22]: 5.9 µM (≈ 3.89 µg/mL)
- MIC [23]: 5.9 µM (≈ 3.89 µg/mL)
- IC50 [24]: 24.7 µM
- IC50 [25]: 15.9 µM
- CC50 [26]: 30.3 µM
- IC50 [27]: 40.6 µM
- MBC [28]: 11.8 µM (≈ 7.78 µg/mL)
- MIC [29]: 11.8 µM (≈ 7.78 µg/mL)
- MFC [30]: 11.8 µM (≈ 7.78 µg/mL)
- MBC [31]: 11.8 µM (≈ 7.78 µg/mL)
- MIC [32]: > 190 µM
- IC50 [33, 46]: 47.8 µM
- MIC [34]: 5.9 µM (≈ 3.89 µg/mL)
- MBC [35]: 11.8 µM (≈ 7.78 µg/mL)
- MBC [36]: 11.8 µM (≈ 7.78 µg/mL)
- MFC [37]: 11.8 µM (≈ 7.78 µg/mL)
- MIC [38]: > 190 µM
- Activity [39]: Toxic
- IC50 [40, 47]: 12 µM
- MIC [41]: 2.8 µM (≈ 1.85 µg/mL)
- MFC [42]: 11.8 µM (≈ 7.78 µg/mL)
- IC50 [43]: 21.9 µM

Compound: COc1ccc(-n2cc(COc3ccc(/C=N/Nc4nc(-c5cc6c(ccc7ccccc76)oc5=O)cs4)cc3)nn2)cc1
- MBC [1]: 21.4 µM (≈ 12.9 µg/mL)
- MIC [2]: > 208 µM
- MIC [4]: > 208 µM
- MIC [5]: 6.5 µM (≈ 3.9 µg/mL)
- Activity [6]: Toxic
- MIC [7]: 6.5 µM (≈ 3.9 µg/mL)
- MIC [8]: > 208 µM
- MIC [9]: > 208 µM
- MFC [44]: 13 µM (≈ 7.81 µg/mL)
- MIC [10]: > 208 µM
- IC50 [11]: 59.7 µM
- MIC [12]: 6.5 µM (≈ 3.9 µg/mL)
- MFC [45]: 13 µM (≈ 7.81 µg/mL)
- MFC [13]: 51.9 µM (≈ 31.2 µg/mL)
- MIC [14]: > 208 µM
- IC50 ([15]; Staphylococcus aureus, MLS16 MTCC 2940, 24 h, read-out: IC50): 51.1 µM
- MBC [16]: 12.9 µM (≈ 7.75 µg/mL)
- MIC [17]: > 208 µM
- MIC [18]: > 208 µM
- selectivity ratio [19]: 5.12
- MBC [20]: 12.9 µM (≈ 7.75 µg/mL)
- MIC [21]: 6.5 µM (≈ 3.9 µg/mL)
- MIC [22]: 12.9 µM (≈ 7.75 µg/mL)
- MIC [23]: 12.9 µM (≈ 7.75 µg/mL)
- IC50 [24]: 30.4 µM
- IC50 [25]: 37.5 µM
- CC50 [26]: 33.3 µM
- IC50 [27]: 45.6 µM
- MBC [28]: 25.9 µM (≈ 15.6 µg/mL)
- MIC [29]: 13 µM (≈ 7.81 µg/mL)
- MBC [31]: 25.9 µM (≈ 15.6 µg/mL)
- MIC [32]: 6.5 µM (≈ 3.9 µg/mL)
- IC50 [33, 46]: 40.2 µM
- MIC [34]: > 208 µM
- MBC [36]: 51.9 µM (≈ 31.2 µg/mL)
- MIC [38]: > 208 µM
- Activity [39]: Toxic
- IC50 [40, 47]: 30.1 µM
- MIC [41]: 3.1 µM (≈ 1.86 µg/mL)
- IC50 [43]: 127 µM

Compound: COc1ccc(-n2cc(COc3ccc(/C=N/Nc4nc(-c5cc6ccccc6oc5=O)cs4)cc3)nn2)cc1
- MBC [1]: 28.3 µM (≈ 15.6 µg/mL)
- MIC [2]: > 227 µM
- MIC [4]: > 227 µM
- MIC [5]: 7.1 µM (≈ 3.91 µg/mL)
- Activity [6]: Toxic
- MIC [7]: 14.1 µM (≈ 7.76 µg/mL)
- MIC [8]: > 227 µM
- MIC [9]: > 227 µM
- MFC [44]: 14.2 µM (≈ 7.82 µg/mL)
- MIC [10]: > 227 µM
- IC50 [11]: 35.7 µM
- MIC [12]: > 227 µM
- MFC [45]: 14.2 µM (≈ 7.82 µg/mL)
- MFC [13]: 56.7 µM (≈ 31.2 µg/mL)
- MIC [14]: > 227 µM
- IC50 [15]: Not Active
- MBC [16]: 14.1 µM (≈ 7.76 µg/mL)
- MIC [17]: > 227 µM
- MIC [18]: > 227 µM
- selectivity ratio [19]: 2.58
- MBC [20]: 28.3 µM (≈ 15.6 µg/mL)
- MIC [21]: 7 µM (≈ 3.85 µg/mL)
- MIC [22]: 14.1 µM (≈ 7.76 µg/mL)
- MIC [23]: 7 µM (≈ 3.85 µg/mL)
- IC50 [24]: 19.5 µM
- IC50 [25]: 6.6 µM
- CC50 [26]: 36.3 µM
- IC50 [27]: 63.5 µM
- MIC [29]: 14.2 µM (≈ 7.82 µg/mL)
- MBC [31]: 14.1 µM (≈ 7.76 µg/mL)
- MIC [32]: 7.1 µM (≈ 3.91 µg/mL)
- IC50 [33]: Not Active
- MIC [34]: > 227 µM
- MBC [36]: 56.6 µM (≈ 31.2 µg/mL)
- MIC [38]: > 227 µM
- Activity [39]: Toxic
- IC50 [40]: Not Active
- MIC [41]: 14.1 µM (≈ 7.76 µg/mL)
- IC50 [43]: 31.3 µM
